Laboratory results from article PMC3591448, “Profile of the GSK Published Protein Kinase Inhibitor Set Across ATP-Dependent and-Independent Luciferases: Implications for Reporter-Gene Assays” (PLoS ONE, 2013).
pIC50: −log10 of the molar value. Where two headings read alike, the source gives them in different places. Each block holds one molecule with its values, some of them ahead of it.

Experiments:
TRKA = test system: TRKA; set-up: method as in Wood, E.R., et al. 2004; settings: ref Wood, E.R., et al. 2004; read-out: PKI IC50 (µM), TRKA; cited from earlier work
[1] = biological target: firefly luciferase, Photinus pyralis (FLuc) (Photinus pyralis, UniProt P08659); experiment: biochemical; assay type: biochemical; settings: for FLuc Parameters Hill Coef: Hill equation fit of CRC; for Emax: response relative to PTC124 control inhibitor, negative = inhibition, read-out: FLuc Parameters Efficacy
Method: (§1) The bioluminescence outputs were measured by an EnVision reader (PerkinElmer, Wellesley, MA). Due to the relatively short luminescence duration of the RLuc assay, dispense time constants were set to match closely to the read time of the plate reader. As a result, each individual well was read with approximately the same time delay from reagent dispense to signal acquisition. See Table 1 for the 1536-well assay protocols.
(§2) Data from each assay was normalized plate-wise to corresponding intraplate controls as described previously, [17]. The same control data sets were also used for the calculation of Z′ factors from each assay. In all assays, wells containing DMSO were used as no-response controls. For the FLuc enzymatic assay, each compound-treated well on the plate was normalized to the average readings of n = 24 PTC124 treated wells and n = 48 DMSO wells from the same plate. Wells were scaled to a full range of DMSO and zero, and then normalized using the maximum response observed in the screen as 100% activity. For the RLuc enzymatic assay, n = 24 BTS treated wells for the positive control, n = 48 DMSO. MSR values were calculated using the cumulative potency differences of the de-interleaved duplicate control titrations from each plate as previously described. The normalized data from each assay plate set was corrected using DMSO-only treated assay plates read at the start and end of each assay run, and the resulting inter-plate titration data fit, using in-house software, to the standard Hill equation and dose-response curves automatically classified as described previously.
(§3) The curve classification scheme for assignment of resulting curve-fit data into CRC classes was according to Inglese et al. as follows: class 1 curves (far left) display two asymptotes, an inflection point, and r^2≥0.9; subclasses 1a vs. 1b are differentiated by full (>80%) vs. partial (≤80%) response. Class 2 curves (second from left) display a single left-hand asymptote and inflection point; subclasses 2a (or 2.1) and 2b (2.2) are differentiated by a max response and r^2, >80% and >0.9 or <80% and <0.9, respectively. Class 3 curves (second from right) have a single left-hand asymptote, no inflection point, and a response >3SD from the mean activity of the sample field.

RHO = test system: RHO; set-up: method as in Stavenger, R. A., et al. 2007; settings: ref Stavenger, R. A., et al. 2007; read-out: PKI IC50 (µM), RHO; cited from earlier work
[2] = biological target: T1, Renilla luciferase (RLuc) (Renilla reniformis, UniProt P27652); experiment: RLuc enzymatic assay (purified enzyme, qHTS, 1536-well); assay type: biochemical; settings: 1 nM RLuc, 5 µM coelenterazine-H
T1 sequence (P27652 1-311): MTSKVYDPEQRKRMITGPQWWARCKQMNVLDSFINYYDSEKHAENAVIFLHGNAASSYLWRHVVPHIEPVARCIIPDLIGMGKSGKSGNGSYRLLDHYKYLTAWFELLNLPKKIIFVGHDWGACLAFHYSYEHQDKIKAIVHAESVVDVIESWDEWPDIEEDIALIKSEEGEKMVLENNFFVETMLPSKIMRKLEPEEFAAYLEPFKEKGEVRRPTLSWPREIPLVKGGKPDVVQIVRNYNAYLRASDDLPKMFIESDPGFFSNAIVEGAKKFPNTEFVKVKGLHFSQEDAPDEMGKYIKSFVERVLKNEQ
Method: as §1, with “1 µL of purified luciferase was then dispensed into each well for final concentrations 10 nM FLuc or 1 nM RLuc. The” for “The”
as §2, §3

CDK2 = settings: ref Bramson, H. N., et al., 2001; read-out: PKI IC50 (µM), CDK2; cited from earlier work
JNK3 = test system: JNK3; set-up: method as in Angell, R.M., et al. 2007; settings: ref Angell, R.M., et al. 2007; read-out: PKI IC50 (µM), JNK3; cited from earlier work
LCK = test system: LCK; set-up: method as in Bamborough, P., et al. 2007; settings: ref Bamborough, P., et al. 2007; read-out: PKI IC50 (µM), LCK; cited from earlier work
GSK3β = settings: ref Peat, A. J., et al., 2004; read-out: PKI IC50 (µM), GSK3β; cited from earlier work
p38 = test system: p38; set-up: method as in Angell, R.M., et al. 2008; settings: ref Angell, R.M., et al. 2008; read-out: PKI IC50 (µM), p38; cited from earlier work
VEGFR = test system: VEGFR; set-up: method as in Sammond, D.M., et al. 2005; settings: ref Sammond, D.M., et al. 2005; read-out: PKI IC50 (µM), VEGFR; cited from earlier work
[3] = 10 nM FLuc, 10 µM D-luciferin, 10 µM ATP, read-out: FLuc Parameters IC50
[4] = Figure 4b, read-out: FLuc (IC50)
[5] = Figure 2b, representative structures of clusters, read-out: FLuc IC50
[6] = Figure 2b, representative structures of clusters
[7] = Figure 3, read-out: IC50 (FLuc)

Sequence of firefly luciferase, Photinus pyralis (FLuc) (P08659 whole entry): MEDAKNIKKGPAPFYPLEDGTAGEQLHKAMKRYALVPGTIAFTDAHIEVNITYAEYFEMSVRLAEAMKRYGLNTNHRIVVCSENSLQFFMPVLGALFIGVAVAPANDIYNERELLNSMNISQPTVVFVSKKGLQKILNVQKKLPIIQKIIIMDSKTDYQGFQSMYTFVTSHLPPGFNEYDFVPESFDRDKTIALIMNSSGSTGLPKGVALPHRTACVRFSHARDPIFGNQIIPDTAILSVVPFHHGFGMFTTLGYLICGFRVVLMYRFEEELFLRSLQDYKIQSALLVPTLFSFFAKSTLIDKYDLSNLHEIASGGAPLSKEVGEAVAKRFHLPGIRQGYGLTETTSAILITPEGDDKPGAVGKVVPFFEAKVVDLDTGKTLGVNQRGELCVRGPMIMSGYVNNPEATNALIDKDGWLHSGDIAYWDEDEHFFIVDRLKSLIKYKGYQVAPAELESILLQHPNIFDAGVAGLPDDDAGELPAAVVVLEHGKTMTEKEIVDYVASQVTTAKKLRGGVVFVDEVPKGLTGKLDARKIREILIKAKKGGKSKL

Compound: O=C1Nc2ccccc2/C1=C1\CCc2cc(O)ccc21 [GR105659X]
IC50 (TRKA): 0.006 µM
pIC50 [1, 3]: 5.29
FLuc Parameters Hill Coef [1]: 1.01
pIC50 ([1]; Table 3, read-out: FLuc IC50): 5.29
Emax [1]: 103%

Compound: CCn1c(-c2nonc2N)nc2cnc(Oc3cccc(NC(=O)c4ccc(N(C)C)cc4)c3)cc21 [GSK248233A]
IC50 (RHO): 0.002 µM
RLuc Curve Class [2]: 4
pIC50 [1, 3]: 5.99
pIC50 [1, 4]: 6.00
FLuc Parameters Hill Coef [1]: 0.9
pIC50 ([1]; Table 3, read-out: FLuc IC50): 5.99
Emax [1]: 98.9%

pIC50 [1, 5]: 4.74
Compound: NS(=O)(=O)c1cccc(N/C=C2\C(=O)Nc3ccccc32)c1 [GW275616X]

Compound: O=C1Nc2ccccc2/C1=C/Nc1ccc2[nH]c(=O)[nH]c2c1 [GW284408X]
RLuc Curve Class [2]: 4
IC50 (TRKA): 0.007 µM
pIC50 [1, 3]: 5.39
FLuc Parameters Hill Coef [1]: 1.93
pIC50 ([1]; Table 3, read-out: FLuc IC50): 5.39
Emax [1]: 37.9%

Compound: CC(C)c1ccc2c(c1)NC(=O)C2=NNc1ccc(S(N)(=O)=O)cc1 [GW300653X]
FLuc IC50 [1, 6]: Inactive

Compound: C/C(Nc1ccc(S(N)(=O)=O)cc1)=C1/C(=O)Nc2ccccc21 [GW335962X]
RLuc Curve Class [2]: 4
IC50 (CDK2): 0.36 µM
pIC50 [1, 3]: 5.44
FLuc Parameters Hill Coef [1]: 1.51
pIC50 ([1]; Table 3, read-out: FLuc IC50): 5.44
Emax [1]: 68.8%

Compound: c1ccc(Nc2ncc(-c3ccccc3)o2)cc1 [GW549390X]
RLuc Curve Class [2]: 4
pIC50 [1, 3]: 6.59
FLuc Parameters Hill Coef [1]: 1.1
pIC50 ([1]; Table 3, read-out: FLuc IC50): 6.59
Emax [1]: 98.6%

pIC50 [1, 5]: 4.92
Compound: CS(=O)(=O)CCNCc1coc(-c2ccc3ncnc(Nc4ccc(OCc5ccccc5)cc4)c3c2)c1 [GW566221A]

pIC50 [1, 7]: < 4.70
Compound: CCN(CC)S(=O)(=O)c1ccc(OC)c(Nc2ncc(-c3ccccc3)o2)c1 [GW572401X]

Compound: N#Cc1c(NC(=O)c2ccccc2F)sc2c1CCCC2 [GW572738X]
RLuc Curve Class [2]: 4
IC50 (JNK3): 0.4 µM
pIC50 [1, 3]: 6.09
FLuc Parameters Hill Coef [1]: 1.66
pIC50 ([1]; Table 3, read-out: FLuc IC50): 6.09
Emax [1]: 82.6%

Compound: COc1ccc(Nc2ncc(-c3ccccc3)o2)cc1OC [GW575533A]
RLuc Curve Class [2]: 4
pIC50 [1, 3]: 5.24
FLuc Parameters Hill Coef [1]: 1.17
pIC50 ([1]; Table 3, read-out: FLuc IC50): 5.24
Emax [1]: 90%

Compound: Cc1ccc(Nc2ccnc(Nc3cccc(C(N)=O)c3)n2)cc1O [GW575808A]
RLuc Curve Class [2]: 4
IC50 (LCK): 0.19 µM
pIC50 [1, 3]: 5.84
FLuc Parameters Hill Coef [1]: 1.54
pIC50 ([1]; Table 3, read-out: FLuc IC50): 5.84
Emax [1]: 106%

Compound: COc1cc(/C=N/Nc2ncnc3[nH]ncc23)ccc1O [GW578748X]
RLuc Curve Class [2]: 4
IC50 (GSK3β): 3.16 µM
pIC50 [1, 3]: 5.44
pIC50 [1, 7]: 5.43
FLuc Parameters Hill Coef [1]: 1.33
pIC50 ([1]; Table 3, read-out: FLuc IC50): 5.44
Emax [1]: 82.3%

pIC50 [1, 7]: < 4.52
Compound: COC(=O)Nc1nc2ccc(Oc3ccc(NC(=O)Nc4cccc(Cl)c4)cc3)cc2[nH]1 [GW589961A]

Compound: N#Cc1cccc(Nc2ncc(-c3ccccc3)o2)c1 [GW627834A]
RLuc Curve Class [2]: 4
pIC50 [1, 3]: 5.99
pIC50 [1, 5]: 6.00
FLuc Parameters Hill Coef [1]: 1.21
pIC50 ([1]; Table 3, read-out: FLuc IC50): 5.99
Emax [1]: 84.1%

Compound: COc1cc(Nc2ncc(-c3ccccc3)o2)cc(OC)c1 [GW631581B]
RLuc Curve Class [2]: 4
pIC50 [1, 3]: 5.19
FLuc Parameters Hill Coef [1]: 1.29
pIC50 ([1]; Table 3, read-out: FLuc IC50): 5.19
Emax [1]: 88.5%

Compound: Cc1cccc(Nc2ncc(-c3ccccc3)o2)c1 [GW632046X]
RLuc Curve Class [2]: 4
pIC50 [1, 3]: 6.24
FLuc Parameters Hill Coef [1]: 1.11
pIC50 ([1]; Table 3, read-out: FLuc IC50): 6.24
Emax [1]: 104%

Compound: COc1cc(/C=N/Nc2ncnc3c2cnn3C(C)C)ccc1O [GW644007X]
RLuc Curve Class [2]: 4
IC50 (GSK3β): 2.51 µM
pIC50 [1, 3]: 5.24
FLuc Parameters Hill Coef [1]: 1.86
pIC50 ([1]; Table 3, read-out: FLuc IC50): 5.24
Emax [1]: 40.7%

pIC50 [1, 7]: < 4.52
Compound: CCc1cccc(NC(=O)Nc2ccc(Oc3ccc4nc(NC(=O)OC)[nH]c4c3)cc2)c1 [GW673715X]

pIC50 [1, 7]: < 4.52
Compound: COC(=O)Nc1nc2cc(Oc3ccc(NC(=O)Nc4cccc(Br)c4)cc3)ccc2[nH]1 [GW694234A]

pIC50 [1, 5]: 4.82
pIC50 [1, 7]: 4.84
pIC50 [1, 4]: 4.85
Compound: COC(=O)Nc1nc2cc(Oc3ccc(NC(=O)Nc4ccccc4)cc3)ccc2[nH]1 [GW694590A]

Compound: COC(=O)Nc1nc2ccc(Oc3ccc(NC(=O)Nc4cccc(C(=O)O)c4)cc3)cc2[nH]1 [GW701427A]
pIC50 [1, 3]: 6.92
FLuc Parameters Hill Coef [1]: 1.69
pIC50 ([1]; Table 3, read-out: FLuc IC50): 6.92
Emax [1]: 102%

Compound: NC(=O)c1cccc(Nc2nccc(Nc3cccc(F)c3)n2)c1 [GW759710A]
RLuc Curve Class [2]: 4
IC50 (LCK): 3.3 µM
pIC50 [1, 3]: 6.14
FLuc Parameters Hill Coef [1]: 1.21
pIC50 ([1]; Table 3, read-out: FLuc IC50): 6.14
Emax [1]: 98.6%

pIC50 [1, 7]: 4.80
Compound: COc1cccc(-n2ncc3c(N/N=C/c4ccc(C(=O)NCCN(C)C)cc4)ncnc32)c1 [GW784307A]

pIC50 [1, 7]: 5.19
Compound: COc1cccc(-n2ncc3c(N/N=C/c4ccncc4)ncnc32)c1 [GW784752X]

Compound: O=C(NCC1CC1)c1ccc(-c2cccc(C(=O)NC3CC3)c2)cc1 [GW806776X]
IC50 (p38): 0.075 µM
pIC50 [1, 3]: 5.04
FLuc Parameters Hill Coef [1]: 1.51
pIC50 ([1]; Table 3, read-out: FLuc IC50): 5.04
Emax [1]: 35.2%

Compound: CN(c1ccc(NC(=O)Nc2c(Cl)cccc2Cl)cc1)c1ccnc(Nc2cccc(CS(C)(=O)=O)c2)n1 [GW809897X]
RLuc Curve Class [2]: 4
IC50 (VEGFR): 0.065 µM
pIC50 [1, 3]: 6.24
pIC50 [1, 4]: 6.25
FLuc Parameters Hill Coef [1]: 1.11
pIC50 ([1]; Table 3, read-out: FLuc IC50): 6.24
Emax [1]: 109%

pIC50 [1, 7]: 4.80
Compound: COc1cccc(-n2cnc3c(N/N=C/c4ccncc4)ncnc32)c1 [GW813360X]

pIC50 [1, 5]: 5.22
pIC50 [1, 4]: 5.24
Compound: COc1cccc(-c2c[nH]c3c(N/N=C/c4ccncc4)ncnc23)c1 [GW814408X]

pIC50 [1, 7]: 4.48
Compound: COc1cccc(-n2ncc3c(N/N=C/c4ccc(F)cc4)ncnc32)c1 [GW817396X]

Compound: N#Cc1c(NC(=O)c2ccc(F)cc2)sc2c1CCCC2 [SB-347804]
RLuc Curve Class [2]: 4
IC50 (JNK3): 3.16 µM
pIC50 [1, 3]: 6.04
FLuc Parameters Hill Coef [1]: 1.48
pIC50 ([1]; Table 3, read-out: FLuc IC50): 6.04
Emax [1]: 72.5%

Compound: O=C1NC(=O)C(c2ccc(Cl)cc2)=C1Nc1ccc(Cl)c(C(=O)O)c1 [SB-360741]
FLuc IC50 [1, 6]: inactive

Compound: COc1ccc(-c2ccc3c(NC(=O)C4CC4)n[nH]c3n2)cc1 [SB-711237]
RLuc Curve Class [2]: 4
pIC50 [1, 3]: 5.64
FLuc Parameters Hill Coef [1]: 0.8
pIC50 ([1]; Table 3, read-out: FLuc IC50): 5.64
Emax [1]: 44.8%

pIC50 [1, 5]: 4.74
Compound: O=C(Nc1n[nH]c2cc(-c3ccccc3)ccc12)C1CC1 [SB-732941]
